molecular target: T1, human 5HT2c receptor (Homo sapiens, UniProt P28335, I156V/I160V, form not given); assay: Calcium mobilization (FLIPR) 5HT2c receptor agonist assay in HEK 293 EBNA cells; format: cell-based; conditions: agonist-stimulated calcium release, HEK 293 EBNA cells expressing human 5HT2c receptor, read-out: 5-HT2c EC50 (hVSV)
T1 sequence (P28335 1-458 I156V/N158S/I160V): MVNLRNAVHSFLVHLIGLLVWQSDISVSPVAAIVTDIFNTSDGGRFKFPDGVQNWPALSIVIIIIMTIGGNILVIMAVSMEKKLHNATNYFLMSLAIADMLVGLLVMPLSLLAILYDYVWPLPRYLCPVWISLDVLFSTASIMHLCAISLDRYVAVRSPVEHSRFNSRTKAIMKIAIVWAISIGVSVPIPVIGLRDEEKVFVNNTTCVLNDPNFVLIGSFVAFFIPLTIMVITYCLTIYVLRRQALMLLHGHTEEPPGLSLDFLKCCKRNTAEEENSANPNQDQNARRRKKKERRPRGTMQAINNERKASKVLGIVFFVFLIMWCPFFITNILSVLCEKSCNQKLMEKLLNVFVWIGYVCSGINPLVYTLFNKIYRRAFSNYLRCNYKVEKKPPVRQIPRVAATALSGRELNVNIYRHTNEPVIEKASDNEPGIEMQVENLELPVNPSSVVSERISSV

Row | EC50 | SMILES
1 | < 100 nM | CC(C)(C)c1cc2c(s1)CCNCC2 [Example 45, 2-tert-Butyl-5,6,7,8-tetrahydro-4H-thieno[2,3-d]azepine]
2 | < 10 nM | COc1c(C)sc2c1CCNCC2 [Example 17, 3-Methoxy-2-methyl-5,6,7,8-tetrahydro-4H-thieno[2,3-d]azepine]
3 | < 1000 nM | Cc1c(Br)sc2c1C(C)CNCC2 (single isomer, unassigned) [36, Enantiomer 2]
4 | < 10 nM | FC(F)(F)c1sc2c(c1Br)CCNCC2 [Example 42, 3-Bromo-2-trifluoromethyl-5,6,7,8-tetrahydro-4H-thieno[2,3-d]azepine]
5 | < 10 nM | Clc1c(Br)sc2c1CCNCC2 [Example 5, 2-Bromo-3-chloro-5,6,7,8-tetrahydro-4H-thieno[2,3-d]azepine]
6 | > 10000 nM | Clc1ccc(Cl)c(-c2cc3c(s2)CCNCC3)c1 [Example 10, 2-(2,5-Dichloro-phenyl)-5,6,7,8-tetrahydro-4H-thieno[2,3-d]azepine]
7 | < 100 nM | CC(C)(C)c1sc2c(c1Cl)CCNCC2 [Example 46, 2-tert-Butyl-3-chloro-5,6,7,8-tetrahydro-4H-thieno[2,3-d]azepine]
8 | < 1000 nM | COC1CNCCc2sc(Br)cc21 (racemic) [Example 33, (R,S)-2-Bromo-4-methoxy-5,6,7,8-tetrahydro-4H-thieno[2,3-d]azepine]
9 | < 100 nM | Cc1c(C(C)(C)C)sc2c1CCNCC2 [Example 21, 2-tert-Butyl-3-methyl-5,6,7,8-tetrahydro-4H-thieno[2,3-d]azepine]
10 | < 10 nM | Cc1c(S(=O)(=O)N(C)C)sc2c1CCNCC2 [Example 28, 3-Methyl-5,6,7,8-tetrahydro-4H-thieno[2,3-d]azepine-2-sulfonic acid dimethylamide]
11 | > 10000 nM | Cc1c(Br)sc2c1C(C)CNCC2 (single isomer, unassigned) [36, Enantiomer 1]
12 | < 1000 nM | CN(C)C(=O)c1cc2c(s1)CCNCC2 [Example 30, 5,6,7,8-Tetrahydro-4H-thieno[2,3-d]azepine-2-carboxylic acid dimethylamide]
13 | > 10000 nM | Fc1ccc(-c2cc3c(s2)CCNCC3)cc1Cl [Example 9, 2-(3-Chloro-4-fluoro-phenyl)-5,6,7,8-tetrahydro-4H-thieno[2,3-d]azepine]
14 | < 10 nM | COc1c(C(C)(C)C)sc2c1CCNCC2 [Example 44, 2-tert-Butyl-3-methoxy-5,6,7,8-tetrahydro-4H-thieno[2,3-d]azepine]
15 | < 100 nM | Clc1cc2c(s1)CCNCC2 [Example 2, 2-Chloro-5,6,7,8-tetrahydro-4H-thieno[2,3-d]azepine]
16 | < 100 nM | CCC1CNCCc2sc(Br)cc21 (racemic) [Example 35, (R,S)-2-Bromo-4-ethyl-5,6,7,8-tetrahydro-4H-thieno[2,3-d]azepine]
17 | < 10000 nM | COc1cccc(-c2cc3c(s2)CCNCC3)c1 [Example 12, 2-(3-Methoxy-phenyl)-5,6,7,8-tetrahydro-4H-thieno[2,3-d]azepine]
18 | < 10 nM | O=S(=O)(c1cc2c(s1)CCNCC2)N1CCCC1 [Example 26, 2-(Pyrrolidine-1-sulfonyl)-5,6,7,8-tetrahydro-4H-thieno[2,3-d]azepine]
19 | < 1000 nM | COc1c(Cl)sc2c1CCNCC2 [Example 19, 2-Chloro-3-methoxy-5,6,7,8-tetrahydro-4H-thieno[2,3-d]azepine]
20 | < 10000 nM | O=C(NC1CCCC1)c1cc2c(s1)CCNCC2 [Example 29, 5,6,7,8-Tetrahydro-4H-thieno[2,3-d]azepine-2-carboxylic acid cyclopentylamide]
21 | < 1000 nM | Fc1cccc(Cl)c1Cc1cc2c(s1)CCNCC2 [Example 14, 2-(2-Chloro-6-fluoro-benzyl)-5,6,7,8-tetrahydro-4H-thieno[2,3-d]azepine]
22 | < 10 nM | FC(F)(F)c1cc2c(s1)CCNCC2 [Example 40, 2-Trifluoromethyl-5,6,7,8-tetrahydro-4H-thieno[2,3-d]azepine]

Row | EC50 | SMILES
23 | < 10 nM | COc1c(C(C)C)sc2c1CCNCC2 [Example 22, 2-Isopropyl-3-methoxy-5,6,7,8-tetrahydro-4H-thieno[2,3-d]azepine]
24 | > 10000 nM | CCc1ccc(-c2cc3c(s2)CCNCC3)cc1 [Example 11, 2-(4-Ethyl-phenyl)-5,6,7,8-tetrahydro-4H-thieno[2,3-d]azepine]
25 | < 100 nM | CC1CNCCc2sc(Br)c(Br)c21 (single isomer, unassigned) [32, Enantiomer 2]
26 | < 10000 nM | Fc1cccc(Cl)c1Cc1sc2c(c1Br)CCNCC2 [Example 15, 3-Bromo-2-(2-chloro-6-fluoro-benzyl)-5,6,7,8-tetrahydro-4H-thieno [2,3-d]azepine]
27 | < 10000 nM | Fc1ccc(-c2cc3c(s2)CCNCC3)cc1 [Example 8, 2-(4-Fluoro-phenyl)-5,6,7,8-tetrahydro-4H-thieno[2,3-d]azepine]
28 | < 10000 nM | CC1CNCCc2sc(Br)c(Br)c21 (single isomer, unassigned) [32, Enantiomer 1]
29 | > 10000 nM | FC(F)(F)Oc1ccc(-c2cc3c(s2)CCNCC3)cc1 [Example 6, 2-(4-Trifluoromethoxy-phenyl)-5,6,7,8-tetrahydro-4H-thieno[2,3-d]azepine]
30 | < 1000 nM | Brc1cc2c(o1)CCNCC2 [Example 49, 2-Bromo-5,6,7,8-tetrahydro-4H-furo[2,3-d]azepine]
31 | > 10000 nM | FC(F)(F)c1ccccc1-c1cc2c(s1)CCNCC2 [Example 7, 2-(2-Trifluoromethyl-phenyl)-5,6,7,8-tetrahydro-4H-thieno[2,3-d]azepine]
32 | < 10000 nM | c1ccc(-c2cc3c(s2)CCNCC3)cc1 [Example 13, 2-Phenyl-5,6,7,8-tetrahydro-4H-thieno[2,3-d]azepine]
33 | < 10 nM | COc1c(Br)sc2c1CCNCC2 [Example 18, 2-Bromo-3-methoxy-5,6,7,8-tetrahydro-4H-thieno[2,3-d]azepine]
34 | < 10 nM | Brc1cc2c(s1)CCNCC2 [Example 1, 2-Bromo-5,6,7,8-tetrahydro-4H-thieno[2,3-d]azepine]
35 | < 10 nM | Brc1sc2c(c1Br)CCNCC2 [Example 3, 2,3-Dibromo-5,6,7,8-tetrahydro-4H-thieno[2,3-d]azepine]
36 | < 10 nM | C=C(C)c1sc2c(c1OC)CCNCC2 [Example 20, 2-Isopropenyl-3-methoxy-5,6,7,8-tetrahydro-4H-thieno[2,3-d]azepine]
37 | < 100 nM | FC(F)(F)c1sc2c(c1Cl)CCNCC2 [Example 41, 3-Chloro-2-trifluoromethyl-5,6,7,8-tetrahydro-4H-thieno[2,3-d]azepine]
38 | < 10000 nM | Clc1csc2c1CCNCC2 [Example 48, 3-Chloro-5,6,7,8-tetrahydro-4H-thieno[2,3-d]azepine]
39 | < 10 nM | Cc1c(Br)sc2c1CCNCC2 [Example 16, 2-Bromo-3-methyl-5,6,7,8-tetrahydro-4H-thieno[2,3-d]azepine]
40 | < 1000 nM | Cc1csc2c1CCNCC2 [Example 43, 3-Methyl-5,6,7,8-tetrahydro-4H-thieno[2,3-d]azepine]
41 | < 10000 nM | CC1(C)CNCCc2cc(Br)sc21 [Example 34, 2-Bromo-8,8-dimethyl-5,6,7,8-tetrahydro-4H-thieno[2,3-d]azepine]
42 | < 10000 nM | CC(C)(C)CC(C)(C)c1sc2c(c1Cl)CCNCC2 [Example 47, 3-Chloro-2-(1,1,3,3-tetramethyl-butyl)-5,6,7,8-tetrahydro-4H-thieno[2,3-d]azepine]
43 | < 10 nM | Clc1sc2c(c1Cl)CCNCC2 [Example 4, 2,3-Dichloro-5,6,7,8-tetrahydro-4H-thieno[2,3-d]azepine]
44 | < 10 nM | CN(C)S(=O)(=O)c1cc2c(s1)CCNCC2 [Example 27, 5,6,7,8-Tetrahydro-4H-thieno[2,3-d]azepine-2-sulfonic acid dimethylamide]

Row | SMILES | EC50
45 | CC(C)(C)c1sc2c3c1CCC3CNCC2 (single isomer, unassigned) [39, Enantiomer 1] | < 100 nM
46 | CC1CNCCc2cc(Cl)sc21 (racemic) [Example 31, (R,S)-2-Chloro-8-methyl-5,6,7,8-tetrahydro-4H-thieno[2,3-d]azepine] | < 100 nM
47 | Brc1cc2c(s1)C1(CC1)CNCC2 [Example 25, 2-Bromo-8-spirocyclopropyl-5,6,7,8-tetrahydro-4H-thieno[2,3-d]azepine] | < 1000 nM
48 | Brc1sc2c3c1CCC3CNCC2 (single isomer, unassigned) [37, Enantiomer 1] | < 1000 nM
49 | CC(C)(C)c1sc2c3c1CCC3CNCC2 (single isomer, unassigned) [39, Enantiomer 2] | < 10 nM
50 | Cc1sc2c3c1CCC3CNCC2 (racemic) [Example 38, (R,S)-2-Methyl-4,4a,5,6,7,8-hexahydro-3H-1-thia-6-aza-cyclopenta[cd]azulene] | < 1000 nM
51 | Brc1sc2c3c1CCC3CNCC2 (single isomer, unassigned) [37, Enantiomer 2] | < 100 nM
